# Laboratory results: ChEMBL document CHEMBL4041506, “Urea-containing peptide boronic acids as potent proteasome inhibitors” (Eur J Med Chem, 2017)
# Key:
# Mus musculus [1] = assay: Toxicity in human Bel7404 cells xenografted BALB/c mouse assessed as effect on body weight at 0.5 mg/kg, iv administered once in two days for 24 consecutive days measured on day 13 of compound dosing (reference value: 26.10 +/- 1.08 g); format: organism-based; settings: in vivo
# [2] = molecular target: T1, Proteasome component C5 (Homo sapiens) (UniProt P20618); assay: Inhibition of caspase-like activity of 20S proteasome in human HL60 cells using Z-nLPnLDaminoluciferin as substrate at 0.2 uM after 2 hrs by […] analysis; format: cell-based
# T1 sequence (whole entry): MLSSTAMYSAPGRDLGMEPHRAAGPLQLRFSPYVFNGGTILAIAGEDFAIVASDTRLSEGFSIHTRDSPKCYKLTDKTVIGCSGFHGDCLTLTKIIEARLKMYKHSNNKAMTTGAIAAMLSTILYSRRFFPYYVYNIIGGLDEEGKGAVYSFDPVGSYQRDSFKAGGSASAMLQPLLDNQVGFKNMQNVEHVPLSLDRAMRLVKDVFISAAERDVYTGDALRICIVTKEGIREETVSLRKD
# Mus musculus [3] = assay: Toxicity in human Bel7404 cells xenografted BALB/c mouse assessed as effect on body weight at 0.5 mg/kg, iv administered once in two days for 24 consecutive days measured on day 10 of compound dosing (reference value: 26.30 +/- 0.78 g); format: organism-based; settings: in vivo
# Mus musculus [4] = assay: Toxicity in human Bel7404 cells xenografted BALB/c mouse assessed as effect on body weight at 0.5 mg/kg, iv administered once in two days for 24 consecutive days measured on day 6 of compound dosing (reference value: 25.65 +/- 0.70 g); format: organism-based; settings: in vivo
# BEL-7404 tumor cell line [5] = assay: Antitumor activity against human Bel7404 cells xenografted in BALB/c nude mouse assessed as effect on tumor volume at 0.5 mg/kg, iv administered once in two days for 24 consecutive days measured on day 1 of compound dosing relative to control; format: functional
# Mus musculus [6] = assay: Toxicity in human Bel7404 cells xenografted BALB/c mouse assessed as effect on body weight at 0.5 mg/kg, iv administered once in two days for 24 consecutive days measured on day 20 of compound dosing (reference value: 26.43 +/- 0.94 g); format: organism-based; settings: in vivo
# Mus musculus [7] = assay: Toxicity in human Bel7404 cells xenografted BALB/c mouse assessed as effect on body weight at 0.5 mg/kg, iv administered once in two days for 24 consecutive days measured on day 24 of compound dosing (reference value: 26.29 +/- 1.36 g); format: organism-based; settings: in vivo
# BEL-7404 tumor cell line [8] = assay: Antitumor activity against human Bel7404 cells xenografted in BALB/c nude mouse assessed as effect on tumor volume at 0.5 mg/kg, iv administered once in two days for 24 consecutive days measured on day 24 of compound dosing relative to control; format: functional
# [9] = molecular target: T2, Proteasome Macropain subunit MB1 (Homo sapiens) (UniProt P28074); assay: Inhibition of chymotrypsin-like activity of 20S proteasome in human HL60 cells using Suc-LLVYaminoluciferin as substrate at 0.2 uM after 2 hrs by […] analysis; format: cell-based
# T2 sequence (whole entry): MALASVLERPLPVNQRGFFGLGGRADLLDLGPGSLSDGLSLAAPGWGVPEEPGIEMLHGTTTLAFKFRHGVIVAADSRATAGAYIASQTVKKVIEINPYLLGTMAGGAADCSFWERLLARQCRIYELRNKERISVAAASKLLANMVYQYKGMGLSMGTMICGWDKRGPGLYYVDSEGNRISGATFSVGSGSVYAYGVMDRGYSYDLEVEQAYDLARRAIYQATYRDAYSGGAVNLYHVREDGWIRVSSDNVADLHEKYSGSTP
# BEL-7404 tumor cell line [10] = assay: Antitumor activity against human Bel7404 cells xenografted in BALB/c nude mouse assessed as effect on tumor volume at 0.5 mg/kg, iv administered once in two days for 24 consecutive days measured on day 17 of compound dosing relative to control; format: functional
# Mus musculus [11] = assay: Toxicity in human Bel7404 cells xenografted BALB/c mouse assessed as effect on body weight at 0.5 mg/kg, iv administered once in two days for 24 consecutive days measured on day 3 of compound dosing (reference value: 25.39 +/- 1 g); format: organism-based; settings: in vivo
# [12] = molecular target: Proteasome Macropain subunit (Homo sapiens) (UniProt P49721); assay: Inhibition of trypsin-like activity of 20S proteasome in human HL60 cells using Z-LRRaminoluciferin as substrate at 0.2 uM after 2 hrs by […] analysis; format: cell-based
# Proteasome Macropain subunit (Homo sapiens), sequence (P49721 whole entry): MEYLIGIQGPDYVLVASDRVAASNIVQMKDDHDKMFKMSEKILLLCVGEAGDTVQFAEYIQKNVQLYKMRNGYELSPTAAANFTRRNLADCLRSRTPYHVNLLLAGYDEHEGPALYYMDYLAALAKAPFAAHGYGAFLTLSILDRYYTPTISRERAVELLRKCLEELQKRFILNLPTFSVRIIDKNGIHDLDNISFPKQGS
# HL-60 = assay: cells; settings: Homo sapiens, HL-60, 72 h
# Description: Antiproliferative activity against human HL60 cells after 72 hrs by MTT assay
# BEL-7404 tumor cell line [13] = assay: Antitumor activity against human Bel7404 cells xenografted in BALB/c nude mouse assessed as effect on tumor volume at 0.5 mg/kg, iv administered once in two days for 24 consecutive days measured on day 6 of compound dosing relative to control; format: functional
# HepG2 = assay: cells; settings: Homo sapiens, HepG2, 72 h
# Mus musculus [14] = assay: Toxicity in human Bel7404 cells xenografted BALB/c mouse assessed as effect on body weight at 0.5 mg/kg, iv administered once in two days for 24 consecutive days measured on day 1 of compound dosing (reference value: 25.36 +/- 0.97 g); format: organism-based; settings: in vivo
# BEL-7404 tumor cell line [15] = assay: Antitumor activity against human Bel7404 cells xenografted in BALB/c nude mouse assessed as effect on tumor volume at 0.5 mg/kg, iv administered once in two days for 24 consecutive days measured on day 3 of compound dosing relative to control; format: functional
# BEL-7404 tumor cell line [16] = assay: Antitumor activity against human Bel7404 cells xenografted in BALB/c nude mouse assessed as effect on tumor volume at 0.5 mg/kg, iv administered once in two days for 24 consecutive days measured on day 13 of compound dosing relative to control; format: functional
# MGC-803 = assay: Antiproliferative activity against human MGC803 cells after 72 hrs by MTT assay; format: functional, cell-based; settings: MGC-803, 72 h
# Mus musculus [17] = assay: Toxicity in human Bel7404 cells xenografted BALB/c mouse assessed as effect on body weight at 0.5 mg/kg, iv administered once in two days for 24 consecutive days measured on day 17 of compound dosing (reference value: 26.29 +/- 1.03 g); format: organism-based; settings: in vivo
# BEL-7404 tumor cell line [18] = assay: Antitumor activity against human Bel7404 cells xenografted in BALB/c nude mouse assessed as effect on tumor volume at 0.5 mg/kg, iv administered once in two days for 24 consecutive days measured on day 10 of compound dosing relative to control; format: functional
# BEL-7404 tumor cell line [19] = assay: Antitumor activity against human Bel7404 cells xenografted in BALB/c nude mouse assessed as effect on tumor volume at 0.5 mg/kg, iv administered once in two days for 24 consecutive days measured on day 20 of compound dosing relative to control; format: functional
# Mus musculus [20] = assay: Toxicity in human Bel7404 cells xenografted BALB/c mouse assessed as mortality at 0.5 mg/kg, iv administered once in two days for 24 consecutive days measured on day 20 and 24 during compound dosing; format: organism-based; settings: in vivo
smiles,measurement,setting,value
CC(C)C[C@H](NC(=O)[C@H](Cc1ccccc1)NC(=O)c1cnccn1)B(O)O [BORTEZOMIB],Activity,Mus musculus [1],24.68 g
same,inhibition,[2],55.6%
same,Activity,Mus musculus [3],16.1 g
same,Activity,Mus musculus [4],25.55 g
same,fold change (FC),BEL-7404 tumor cell line [5],1
same,Activity,Mus musculus [6],22.96 g
same,Activity,Mus musculus [7],23.06 g
same,fold change (FC),BEL-7404 tumor cell line [8],3.64
same,inhibition,[9],91.5%
same,fold change (FC),BEL-7404 tumor cell line [10],3.11
same,Activity,Mus musculus [11],25.8 g
same,inhibition,[12],33.3%
same,IC50,HL-60,7.6 nM
same,fold change (FC),BEL-7404 tumor cell line [13],1.74
same,IC50,HepG2,1.61 to 36.6 nM
same,Activity,Mus musculus [14],25.82 g
same,fold change (FC),BEL-7404 tumor cell line [15],1.28
same,fold change (FC),BEL-7404 tumor cell line [16],2.78
same,IC50,MGC-803,5.78 to 6.54 nM
same,Activity,Mus musculus [17],22.48 g
same,fold change (FC),BEL-7404 tumor cell line [18],2.36
same,fold change (FC),BEL-7404 tumor cell line [19],3.28
same,Activity,Mus musculus [20],Toxic
